Data from patent publication EP1000025B1, “SUBSTITUTED NAPHTHOPYRANS” (TRANSITIONS OPTICAL, INC., priority 1997, dated 1998).

Experiment: Photochromic response of test square polymerizates on an optical bench
Format: physicochemical
Details: for ΔOD@ SATURATION: UV exposure continued for 20 minutes; for ΔOD@ SATURATION / ΔOD/MIN SENSITIVITY: test squares by method 1, 75°F (23.9°C); for ΔOD/MIN SENSITIVITY: measured over the first five (5) seconds of UV exposure, expressed on a per minute basis; for Bleach (T1/2): time for absorbance of the activated form to reach one half the highest absorbance at room temperature (75°F, 23.9°C) after removal of activating light, method 1; for LAMBDA MAX (VISIBLE): wavelength in the visible spectrum of maximum absorption of the activated (colored) form, diethylene glycol bis(allyl carbonate) composition
Method: Testing was done with the photochromic naphthopyrans of the Examples incorporated or imbibed into test square polymerizates by one of two different methods. In Method I, the photochromic naphthopyrans of the Examples were incorporated into polymeric samples. The quantity of naphthopyran calculated to yield a 1.5 times 10^-3 molal solution was added to a flask containing 50 grams of a monomer blend of 4 parts ethoxylated bisphenol A dimethacrylate (BPA 2EO DMA), 1 part poly(ethyleneglycol) 600 dimethacrylate, and 0.033 weight percent 2,2'-azobis(2-methyl propionitrile) (AIBN). The naphthopyrans were dissolved into the monomer blend by stirring and gentle heating, if necessary. After a clear solution was obtained, it was poured into a flat sheet mold having the interior dimensions of 2.2 mm x 6 inches (15.24 cm) x 6 inches (15.24 cm). The mold was sealed and placed in a horizontal air flow, programmable oven set to increase the temperature from 40°C. to 95°C. over a 5 hour interval, hold the temperature at 95°C. for 3 hours and then lower it to 60°C. for at least 2 hours before the end of the curing cycle. After the molds were opened, the polymer sheets were cut using a diamond blade saw into 2 inch (5.1 centimeters) test squares.
In Method II, the photochromic naphthopyran was imbibed into test square polymerizates prepared from a diethylene glycol bis(allyl carbonate) composition. The test squares measured 1/8 inch (0.3 centimeters) x 2 inches (5.1 centimeters) x 2 inches (5.1 centimeters). In the imbibition process, the photochromic naphthopyran was dissolved to form a 10 weight percent solution in a 1:9 mixture of ethyl cellulose:toluene. The solution was then spin coated onto the test squares and allowed to dry. Samples were then heated in a hot-air oven at 135-155°C for a period of time sufficient to thermally transfer the photochromic into the test squares. […] After cooling, the ethyl cellulose/toluene resin film was removed from the test squares by washing with acetone.
The photochromic test squares were tested for photochromic response rates on an optical bench. Prior to testing on the optical bench, the photochromic test squares were exposed to 365 nanometer ultraviolet light for about 15 minutes to activate the photochromic compounds and then placed into a 76°C oven for about 15 minutes to bleach or inactivate the photochromic compounds. The test squares were then cooled to room temperature, exposed to fluorescent room lighting for at least 2 hours and then kept covered for at least 2 hours prior to testing on an optical bench maintained at 75°F (23.9°C). The bench was fitted with a 150 watt Xenon arc lamp, a remote controlled shutter, a copper sulfate bath acting as a heat sink for the arc lamp, a Schott WG-320 nm cut-off filter which removes short wavelength radiation; neutral density filter(s) and a sample holder in which the square to be tested was inserted. A collimated beam of light from a tungsten lamp was passed through the square at a small angle normal to the square. After passing through the square, the light from the tungsten lamp was directed through a photopic filter attached to a detector. The photopic filter passes wavelengths such that the detector mimics the response of the human eye. The output signals from the detector(s) were processed by a radiometer.
Change in optical density (ΔOD) was determined by inserting a test square in the bleached state into the sample holder, adjusting the transmittance scale to 100%, opening the shutter from the Xenon lamp to provide ultraviolet radiation to change the test square from the bleached state to an activated (i.e., darkened) state, measuring the transmittance in the activated state, and calculating the change in optical density according to the formula Δ OD=log(100/%Ta) where %Ta is the percent transmittance in the activated state and the logarithm is to the base 10. […]

Row | SMILES | ΔOD@ SATURATION | ΔOD/MIN SENSITIVITY | Bleach (T1/2) [min] | LAMBDA MAX (VISIBLE)
1 | COC(=O)c1c2c(c3ccccc3c1O)OC(c1ccccc1)(c1ccc(N3CCOCC3)cc1)C=C2 (stereo not drawn) [Example 1, 2-(4-morpholinophenyl)-2-phenyl-5-methoxycarbonyl-6-hydroxy-2H-naphtho[1,2-b]pyran] | 1.36 | 0.64 | 3.22 | 511
2 | COC(=O)c1c2c(c3ccccc3c1OC)OC(c1ccccc1)(c1ccc(N3CCOCC3)cc1)C=C2 (stereo not drawn) [Example 2, 2-(4-morpholinophenyl)-2-phenyl-5-methoxycarbonyl-6-methoxy-2H-naphtho[1,2-b]pyran] | 0.95 | 0.29 | 4.87 | 541
3 | COC(=O)c1c2c(c3ccccc3c1OC(C)=O)OC(c1ccccc1)(c1ccc(N3CCOCC3)cc1)C=C2 (stereo not drawn) [Example 3, 2-(4-morpholinophenyl)-2-phenyl-5-methoxycarbonyl-6-acetoxy-2H-naphtho[1,2-b]pyran] | 0.31 | 0.24 | 1.47 | 545
4 | COC(=O)c1c2c(c3ccccc3c1OC(C)=O)OC(c1ccccc1)(c1ccc(N(C)C)cc1)C=C2 (stereo not drawn) [Example 4, 2-(4-dimethylaminophenyl)-2-phenyl-5-methoxycarbonyl-6-acetoxy-2H-naphtho[1,2-b]pyran] | 0.30 | 0.27 | 1.17 | 591
5 | COC(=O)c1c2c(c3ccccc3c1C)OC(c1ccccc1)(c1ccc(N(C)C)cc1)C=C2 (stereo not drawn) [Example 5, 2-(4-dimethylaminophenyl)-2-phenyl-5-methoxycarbonyl-6-methyl-2H-naphtho[1,2-b]pyran] | 0.51 | 0.20 | 3.33 | 584
6 | COC(=O)c1c2c(c3ccccc3c1OC(C)=O)OC(c1ccc(N(C)C)cc1)(c1ccc(N(C)C)cc1)C=C2 [Example 6, 2,2-bis(4-dimethylaminophenyl)-5-methoxycarbonyl-6-acetoxy-2H-naphtho[1,2-b]pyran] | 0.07 | 0.16 | 0.317 | 618
